Experimental data from patent US20250333371A1, “COMPOUNDS” (PSYLO PTY LTD, priority 2022, published 2025).
Like-named read-outs stand apart in the source and are kept apart here.

Key:
Format in all cases: cell-based
5-HT2A = biological target: T1, 5-HT2A (Homo sapiens, UniProt P28223); test: FLIPR Ca2+ flux functional assay, 5-HT2A receptor (stably transfected HEK293); conditions: for Emax at 10 µM: no EC50 value given, read-out: 5-HT2A Emax (%) printed as % @ 10 uM
T1 construct: host or cells: HEK293
T1 sequence (P28223 whole entry): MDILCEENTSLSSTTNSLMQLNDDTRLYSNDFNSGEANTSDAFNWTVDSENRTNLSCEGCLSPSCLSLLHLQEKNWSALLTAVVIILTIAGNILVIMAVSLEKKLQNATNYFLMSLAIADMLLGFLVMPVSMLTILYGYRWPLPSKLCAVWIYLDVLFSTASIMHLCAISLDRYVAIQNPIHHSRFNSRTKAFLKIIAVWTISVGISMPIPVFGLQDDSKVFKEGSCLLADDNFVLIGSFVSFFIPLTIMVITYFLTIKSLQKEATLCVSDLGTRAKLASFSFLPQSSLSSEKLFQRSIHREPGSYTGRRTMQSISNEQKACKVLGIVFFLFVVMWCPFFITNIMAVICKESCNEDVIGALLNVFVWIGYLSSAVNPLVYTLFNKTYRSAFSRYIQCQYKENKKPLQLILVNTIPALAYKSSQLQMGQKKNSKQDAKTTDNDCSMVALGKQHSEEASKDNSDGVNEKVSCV
Procedure: (§1) Activity at 5-HT2A, 5-HT2B and 5-HT2C receptors was determined using a FLIPR Ca^2+ flux assay at WuXi AppTec Co. Ltd. (Hong Kong) Discovery Biology Unit according to their standard protocols. Briefly, stably transfected cells expressing the receptor of interest (HEK293 for 5-HT2A and 5-HT2C; CHO-K1 for 5-HT2B) were grown and plated in a 384 well plate and incubated at 37° C. and 5% CO2 overnight. A 250 mM stock solution of probenecid in FLIPR calcium assay buffer (10 mL) was freshly prepared and combined with a fluorescent dye (Fluo-4 Direct) to give a final assay concentration of 2.5 mM. Reference compounds were 4-fold serially diluted and the screening compounds were 3-fold serially diluted in 100% DMSO for 10 points using Agilent Bravo, and 750 nL was added to a 384 well compound plate using Echo along with 30 μL assay buffer. The fluorescent dye was then added to the assay plate along with assay buffer to a final volume of 40 μL. The cell plate was incubated for 50 min at 37° C. and 5% CO2 and placed into the FLIPR Tetra along with the compound plate. 10 μL of references and compounds were then transferred from the compound plate into the cell plate and the fluorescent signal was read.

5-HT2B = biological target: T2, 5-HT2B (Homo sapiens, UniProt P41595); test: FLIPR Ca2+ flux functional assay, 5-HT2B receptor (stably transfected CHO-K1)
T2 construct: host or cells: CHO-K1
T2 sequence (P41595 whole entry): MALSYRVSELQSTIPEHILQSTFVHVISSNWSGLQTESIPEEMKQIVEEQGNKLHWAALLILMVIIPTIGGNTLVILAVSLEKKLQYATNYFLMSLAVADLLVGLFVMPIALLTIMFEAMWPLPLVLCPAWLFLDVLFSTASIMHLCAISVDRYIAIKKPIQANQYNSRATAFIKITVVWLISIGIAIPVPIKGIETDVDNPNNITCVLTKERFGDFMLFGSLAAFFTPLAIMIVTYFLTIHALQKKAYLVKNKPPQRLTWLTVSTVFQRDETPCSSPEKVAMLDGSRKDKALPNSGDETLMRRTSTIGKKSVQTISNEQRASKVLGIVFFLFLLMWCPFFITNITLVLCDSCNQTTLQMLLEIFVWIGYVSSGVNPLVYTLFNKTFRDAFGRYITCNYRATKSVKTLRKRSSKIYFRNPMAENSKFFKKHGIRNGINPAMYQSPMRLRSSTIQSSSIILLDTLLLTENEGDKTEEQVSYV
Procedure: as §1

5-HT2C = biological target: T3, 5-HT2C (Homo sapiens, UniProt P28335); test: FLIPR Ca2+ flux functional assay, 5-HT2C receptor (stably transfected HEK293)
T3 construct: host or cells: HEK293
T3 sequence (P28335 33-458): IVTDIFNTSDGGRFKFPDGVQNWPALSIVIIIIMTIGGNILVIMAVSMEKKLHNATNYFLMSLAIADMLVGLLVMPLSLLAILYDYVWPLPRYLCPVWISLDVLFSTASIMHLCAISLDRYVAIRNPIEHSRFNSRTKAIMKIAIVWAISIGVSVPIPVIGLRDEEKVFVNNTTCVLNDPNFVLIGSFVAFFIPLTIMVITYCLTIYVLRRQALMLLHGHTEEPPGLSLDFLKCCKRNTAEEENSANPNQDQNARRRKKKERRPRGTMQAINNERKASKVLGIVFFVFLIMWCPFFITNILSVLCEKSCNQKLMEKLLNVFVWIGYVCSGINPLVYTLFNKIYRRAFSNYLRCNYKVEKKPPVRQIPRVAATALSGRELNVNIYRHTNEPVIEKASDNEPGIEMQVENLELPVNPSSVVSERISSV
Procedure: as §1

[1] = agonist activity, Ca2+ flux, HEK293
[2] = agonist activity, Ca2+ flux, HEK293, read-out: 5-HT2A EC50
[3] = agonist activity, Ca2+ flux, CHO-K1
[4] = agonist activity, Ca2+ flux, CHO-K1, read-out: 5-HT2B EC50
[5] = agonist activity, Ca2+ flux, HEK293, read-out: 5-HT2C EC50

Structure (SMILES) | Emax (5-HT2A; [1]) [%] | EC50 (5-HT2A; [2]) [µM] | Emax (5-HT2B; [3]) [%] | EC50 (5-HT2B; [4]) [µM] | Emax (5-HT2C; [1]) [%] | EC50 (5-HT2C; [5]) [µM] | EC50 (5-HT2A) [µM] | EC50 (5-HT2C) [µM] | EC50 (5-HT2B) [µM] | Emax at 10 µM (5-HT2A; HEK293) [%]
CCCN(CCC)CCc1cccc2ccc(OC)cc12 [Example I-3, N-(2-(7-methoxynaphthalen-1-yl)ethyl)-N-propylpropan-1-amine] | 77 | 0.234 | 72 | 0.225 | 97 | 0.944 |  |  |  | 
CC(C)N(C)CCc1cccc2ccc(F)cc12 [Example I-40, N-(2-(7-fluoronaphthalen-1-yl)ethyl)-N-methylpropan-2-amine] | 68 |  |  |  | 84 |  | 0.378 | 0.12 |  | 
CN(C)CCc1cccc2ccc(F)cc12 [Example I-38, 2-(7-fluoronaphthalen-1-yl)-N,N-dimethylethan-1-amine] | 66 |  |  |  | 83 |  | 0.245 | 0.046 |  | 
COc1cnc2cccc(CCN(C)C)c2c1 [Example I-9, 2-(3-methoxyquinolin-5-yl)-N,N-dimethylethan-1-amine] | 39 | 1.84 | 1 | > 10 | 65 | 2.39 |  |  |  | 
NCCc1cccc2ccc(F)cc12 [Example I-53, 2-(7-fluoronaphthalen-1-yl)ethan-1-amine] | 83 |  |  |  | 97 |  | 0.034 | 0.001 |  | 
CN(C)CCc1cccc2ccc(Cl)cc12 [Example I-32, 2-(7-chloronaphthalen-1-yl)-N,N-dimethylethan-1-amine] | 63 |  |  |  | 87 |  | 0.24 | 0.061 |  | 
COc1ccc2cccc(CCN(C)C)c2c1 [Example I-1, 2-(7-methoxynaphthalen-1-yl)-N,N-dimethylethan-1-amine] | 79 | 0.096 | -0.99 |  | 82 |  |  | 0.033 | > 10 | 
CN(C)CCc1cccc2cccc(O)c12 [Example I-21, 8-(2-(dimethylamino)ethyl)naphthalen-1-ol] | 73 | 0.053 |  |  | 90 |  |  | 0.012 |  | 
CN(CCc1cccc2ccc(F)cc12)C1CC1 [Example I-41, N-(2-(7-fluoronaphthalen-1-yl)ethyl)-N-methylcyclopropanamine] | 33 | 1.02 |  |  | 80 | 0.15 |  |  |  | 
COc1cccc2c(CCN)cccc12 [Example I-52, 2-(5-methoxynaphthalen-1-yl)ethan-1-amine] | 79 |  |  |  | 91 |  | 0.295 | 0.289 |  | 
CCN(CC)CCc1cccc2ccc(OC)cc12 [Example I-2, N,N-diethyl-2-(7-methoxynaphthalen-1-yl)ethan-1-amine] | 70 |  | 12 |  | 88 |  | 0.36 | 0.733 | > 10 | 
CN(CCc1cccc2cccc(O)c12)C1CC1 [Example I-31, 8-(2-(cyclopropyl(methyl)amino)ethyl)naphthalen-1-ol] | 64 | 0.06 |  |  | 57 | 0.123 |  |  |  | 
COc1cccc2cccc(CCN(C)C3CC3)c12 [Example I-30, N-(2-(8-methoxynaphthalen-1-yl)ethyl)-N-methylcyclopropanamine] | 48 | 0.496 |  |  | 60 | 0.409 |  |  |  | 
COc1cccc2cccc(CCN(C)C)c12 [Example I-13, 2-(8-methoxynaphthalen-1-yl)-N,N-dimethylethan-1-amine] | 49 |  | 5 |  | 58 |  | 0.138 | 0.582 | > 10 | 
COc1cccc(CNCCc2cccc3ccc(OC)cc23)c1 [Example I-17, N-(3-methoxybenzyl)-2-(7-methoxynaphthalen-1-yl)ethan-1-amine] | 84 | 0.092 |  |  | 97 | 0.018 |  |  |  | 
CCN(C)CCc1cccc2ccc(F)cc12 [Example I-39, N-ethyl-2-(7-fluoronaphthalen-1-yl)-N-methylethan-1-amine] | 58 |  |  |  | 93 |  | 0.168 | 0.033 |  | 
CCN(C)CCc1cccc2ccc(OC)cc12 [Example I-5, N-ethyl-2-(7-methoxynaphthalen-1-yl)-N-methylethan-1-amine] | 63 | 0.086 | 17 |  | 94 |  |  | 0.043 | > 10 | 
COc1cccc2cccc(CCN(C)C(C)C)c12 [Example I-28, N-(2-(8-methoxynaphthalen-1-yl)ethyl)-N-methylpropan-2-amine] | 94 |  | 46 |  | 76 |  | 0.191 | 0.766 | > 10 | 
COc1ccc2cccc(CCN(C(C)C)C(C)C)c2c1 [Example I-4, N-isopropyl-N-(2-(7-methoxynaphthalen-1-yl)ethyl)propan-2-amine] | 111 | 0.446 | 123 | 1.2 | 99 | 1.26 |  |  |  | 
CCN(C)CCc1cccc2cccc(O)c12 [Example I-26, 8-(2-(methyl(ethyl)amino)ethyl)naphthalen-1-ol] | 68 | 0.041 |  |  | 86 |  |  | 0.015 |  | 
COc1cccc2cccc(CCN(C(C)C)C(C)C)c12 [Example I-24, N-isopropyl-N-(2-(8-methoxynaphthalen-1-yl)ethyl)propan-2-amine] | 98 | 1.47 | 116 | 4.7 | 90 | 2.56 |  |  |  | 
COc1cccc2c(CCN(C)C)cccc12 [Example I-50, 2-(5-methoxynaphthalen-1-yl)-N,N-dimethylethan-1-amine] |  |  |  |  |  |  |  |  |  | 28
CCN(CC)CCc1cccc2cccc(OC)c12 [Example I-22, N,N-diethyl-2-(8-methoxynaphthalen-1-yl)ethan-1-amine] | 85 |  | 34 |  | 95 |  | 0.457 | 0.157 | > 10 | 
CCCN(C)CCc1cccc2ccc(OC)cc12 [Example I-6, N-(2-(7-methoxynaphthalen-1-yl)ethyl)-N-methylpropan-1-amine] | 81 |  | 24 |  | 95 |  | 0.125 | 0.079 | > 10 | 
CCN(C)CCc1cccc2ccccc12 [Example I-33, N-ethyl-N-methyl-2-(naphthalen-1-yl)ethan-1-amine] | 58 |  |  |  | 67 |  | 0.204 | 0.115 |  | 
CC(C)N(C)CCc1cccc2cccc(O)c12 [Example I-29, 8-(2-(methyl(isopropyl)amino)ethyl)naphthalen-1-ol] | 79 | 0.036 |  |  | 84 |  |  | 0.054 |  | 
CCCN(C)CCc1cccc2cccc(OC)c12 [Example I-27, N-(2-(8-methoxynaphthalen-1-yl)ethyl)-N-methylpropan-1-amine] | 86 |  | 2 |  | 75 |  | 0.213 | 0.211 | > 10 | 
CCN(C)CCc1cccc2cccc(OC)c12 [Example I-25, N-ethyl-2-(8-methoxynaphthalen-1-yl)-N-methylethan-1-amine] | 67 |  | 24 |  | 84 |  | 0.158 | 0.201 | > 10 | 
CCCN(CCC)CCc1cccc2cccc(OC)c12 [Example I-23, N-(2-(8-methoxynaphthalen-1-yl)ethyl)-N-propylpropan-1-amine] | 93 | 0.165 | 89 | 0.103 | 88 | 0.291 |  |  |  | 
COc1ccc2cccc(CCN(C)C)c2n1 [Example I-8, 2-(2-methoxyquinolin-8-yl)-N,N-dimethylethan-1-amine] |  |  | 8 | > 10 | 87 | 0.314 |  |  |  | 24
